Values of other authors as cited in US20040259937A1, “Hydroxycitric acid complex metal salts, composition, and methods” (INDFRAG LIMITED, priority 2003, published 2004).

Details: converted to the lactone form during processing

stability of pure free acid: not stable
Structure (SMILES): O=C(O)CC(O)(C(=O)O)C(O)C(=O)O (single isomer, unassigned; (-)) [(−)hydroxycitric acid]
